# Measurements as given in paper PMC4839570, “Novel Anthra[1,2-c][1,2,5]Thiadiazole-6,11-Diones as Promising Anticancer Lead Compounds: Biological Evaluation, Characterization & Molecular Targets Determination” (PLoS ONE, 2016).
# Experiments:
# [1] = test system: Mycobacterium tuberculosis H37Rv; assay: Antimycobacterial susceptibility, BACTEC MGIT 960 SIRE; format: cell-based
# [2] = test system: MGH-U1R cell line; design: method as in PMID 25431950; conditions: cited from earlier work
# [3] = test system: normal cardiac myoblast H9c2 cells
# Description: Briefly, 96 well microtiter plates were inoculated with the specified human cancer cell lines in RPMI 1640 medium containing 5% fetal bovine serum and 2 mM L-glutamine at the specified plating densities. The microtiter plates were incubated at 37°C, 5% CO2, and 100% relative humidity for 24 h. The test compounds were solubilized in DMSO at 400-fold the desired final maximum test concentration, diluted with complete medium containing gentamicin and added to the wells of the microtiter plates to achieve the final desired compound concentration, then incubated for an additional 48 h at the same incubation conditions. The media were removed, the cells were fixed then stained with sulforhodamine B and the unbound dye was removed by washing with acetic acid. The bound dye was resolubilized with trizma base and the absorbance at 515 nm was measured. Cells were stained with the WST-1 cell proliferation reagent instead of sulforhodamine B in some experiments and absorbance were measured at 440 nm. The three dose response parameters GI50, TGI and LC50 were calculated for each experimental compound as follows [48]: For values where Ti ≥ Tz the formula is [ (Ti-Tz) / (C-Tz)] x 100 For values where Ti < Tz the formula is [ (Ti-Tz) / Tz] x 100 Where Ti is the absorbance of the solubilized Sulforhodamine B (SRB) (representing the number of cells) of the five different concentrations of the compound used in the test, Tz is the absorbance of the SRB at time zero, and C is the absorbance of the SRB of the control growth.
smiles,measurement,setting,value
"[H]/N=C(/N)N[C@H]1[C@H](O)[C@@H](O)[C@H](O[C@@H]2O[C@@H](C)[C@](O)(C=O)[C@H]2O[C@@H]2O[C@@H](CO)[C@H](O)[C@@H](O)[C@@H]2NC)[C@@H](N/C(N)=N\[H])[C@@H]1O [Streptomycin, reference compound]",Effect on M. tuberculosis H37Rv,[1]; 1 μg/mL,Inhibition
"CO[C@H]1/C=C/O[C@@]2(C)Oc3c(C)c(O)c4c(O)c(c(/C=N/N5CCN(C)CC5)c(O)c4c3C2=O)NC(=O)/C(C)=C\C=C\[C@H](C)[C@H](O)[C@@H](C)[C@@H](O)[C@@H](C)[C@H](OC(C)=O)[C@@H]1C [Rifampin, reference compound]",Effect on M. tuberculosis H37Rv,[1]; 1 μg/mL,Inhibition
"CC[C@@H](CO)NCCN[C@@H](CC)CO [Ethambutol, reference compound]",Effect on M. tuberculosis H37Rv,[1]; 5 μg/mL,Inhibition
"NNC(=O)c1ccncc1 [Isoniazid, reference compound]",Effect on M. tuberculosis H37Rv,[1]; 0.1 μg/mL,Inhibition
"COc1cccc2c1C(=O)c1c(O)c3c(c(O)c1C2=O)C[C@@](O)(C(=O)CO)C[C@@H]3O[C@H]1C[C@H](N)[C@H](O)[C@H](C)O1 [Doxorubicin, doxorubicin, reference compound]",resistance of MGH-U1R cell line,[2],40 fold
same,cytotoxicity towards normal cardiac myoblast H9c2 cells,[3],potent dose dependent cytotoxic effect
